Assay results reported in US20100221763A1, “Specific Acceptors for Transferases to Saccharides and Method for Obtaining and Using Same” (Health Research, Inc, priority 2005, published 2010).
Where “and” joins values, the source holds several entries; their conditions need not be identical. Equal values may be shown once.

How the values were obtained:
[1] = target: T1, Rat recombinant α2,3(N)ST (Rattus norvegicus, UniProt Q02734); test: Sialyltransferase assay with cloned α2,3(N)ST; type: biochemical; conditions: Table I; acceptor 7.5 mM; 100% = 29520 CPM (Galβ1,4GlcNAcβ-O—Al)
T1 construct: purchased Calbiochem
T1 sequence (Q02734 29-374 limits assumed): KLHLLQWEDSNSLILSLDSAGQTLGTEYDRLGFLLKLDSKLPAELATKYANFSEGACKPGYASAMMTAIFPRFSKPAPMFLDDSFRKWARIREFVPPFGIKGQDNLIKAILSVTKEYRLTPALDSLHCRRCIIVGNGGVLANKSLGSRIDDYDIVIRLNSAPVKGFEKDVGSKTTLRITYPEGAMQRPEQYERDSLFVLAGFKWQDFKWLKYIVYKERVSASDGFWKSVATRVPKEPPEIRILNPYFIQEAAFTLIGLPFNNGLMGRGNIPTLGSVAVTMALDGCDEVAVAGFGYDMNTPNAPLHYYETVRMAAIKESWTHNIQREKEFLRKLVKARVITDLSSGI
Outline: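 Each rat recombinant sialyltransferase incubated 2 h at 37° C in 0.1M NaCacodylate pH6.0 with acceptor (typically 7.5 mM) and CMP-[9-³H]NeuAc (typically 0.2 μci; 20 μci/nmol), in duplicate, acceptor-free blank subtracted. Radiolabelled product separated on Dowex-1-Formate or Sep-Pak C18 and counted by liquid scintillation.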

[2] = target: T2, Rat recombinant α2,6(N)ST (Rattus norvegicus, UniProt P13721); test: Sialyltransferase assay with cloned α2,6(N)ST; type: biochemical; conditions: Table I; acceptor 7.5 mM; 100% = 43500 CPM (Galβ1,4GlcNAcβ-O—Al)
T2 construct: purchased Calbiochem
T2 sequence (P13721 1-403): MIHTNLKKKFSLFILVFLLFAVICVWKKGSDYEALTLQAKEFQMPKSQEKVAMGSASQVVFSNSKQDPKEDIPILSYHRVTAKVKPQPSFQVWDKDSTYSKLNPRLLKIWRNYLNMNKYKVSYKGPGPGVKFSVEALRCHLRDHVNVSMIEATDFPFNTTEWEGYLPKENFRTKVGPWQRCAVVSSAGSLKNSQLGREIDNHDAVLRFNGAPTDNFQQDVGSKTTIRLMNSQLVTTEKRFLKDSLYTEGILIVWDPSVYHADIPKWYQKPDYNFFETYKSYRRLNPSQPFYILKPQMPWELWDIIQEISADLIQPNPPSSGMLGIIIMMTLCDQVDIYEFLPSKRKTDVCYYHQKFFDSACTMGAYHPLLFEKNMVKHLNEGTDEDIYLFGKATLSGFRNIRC

LNCaP α2,3(O)ST = test: Sialyltransferase assay with LNCaP cell extract; type: biochemical, human; conditions: Table I; acceptor 7.5 mM; 100% = 30930 CPM (3-O-MeGalβ1,4GlcNAcβ1,6(Galβ1,3)GalNAcα-O-Bn)
Outline: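 LNCaP Triton X-100 extract (5 mg protein/ml; 0.1M Tris-maleate pH6.3) incubated with acceptor (typically 7.5 mM) and CMP-[9-3H]NeuAc (typically 0.2 μCi) in 0.1M Na cacodylate pH6.0, 2 h at 37 °C, in duplicate. Radioactive product separated on Dowex-1-formate, Sep-Pak C18 or Biogel P2 and counted by scintillation; blank without acceptor subtracted.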

| Compound | Sialyltransferase activity (%) Cloned α2,3(N)ST [1] | Sialyltransferase activity (%) Cloned α2,6(N)ST [2] [%] | Sialyltransferase activity (%) LNCaP α2,3(O)ST (LNCaP α2,3(O)ST) [%] |
| --- | --- | --- | --- |
| CO[C@H]1[C@H](O[C@H]2[C@H](O)[C@@H](NC(C)=O)C(O)O[C@@H]2CO)O[C@H](CO)[C@H](O)[C@@H]1O (stereo partly shown) [2-O-MeGalβ1,4GlcNAc] | 60.0% | 90.1 | – |
| CO[C@H]1[C@H](O[C@H]2[C@H](O)[C@@H](CO)OC(O)[C@@H]2NC(C)=O)O[C@H](CO)[C@H](O)[C@@H]1O (stereo partly shown) [2-O-MeGalβ1,3GlcNAc] | 115.3% | 3.7 | – |
| C=CCO[C@H]1O[C@H](CO)[C@H](O)[C@H](O[C@@H]2O[C@H](CO)[C@H](O)[C@H](O)[C@H]2O)[C@H]1NC(C)=O [Galβ1,3GalNAcα-O—Al] | 24.1% | 0.2 | 34.4 |
| CO[C@H]1O[C@H](CO)[C@H](O)[C@H](O[C@@H]2O[C@H](CO)[C@H](O)[C@H](O[C@@H]3O[C@H](CO)[C@H](O)[C@H](O)[C@H]3O)[C@H]2NC(C)=O)[C@H]1O [Galβ1,3GalNAcβ1,3Galα-O-Me] | 106.8% and 106.8^20% | 1.1 | 34.3 |
| CO[C@H]1O[C@H](CO)[C@H](O)[C@H](O[C@@H]2O[C@H](CO)[C@H](O)[C@H](O[C@@H]3O[C@H](C)[C@H](O)[C@H](O)[C@H]3O)[C@H]2NC(C)=O)[C@H]1O [D-Fucβ1,3GalNAcβ1,3Galα-O-Me] | 3.1% | 2.5 | 9.6 |
